Source: patent US11136328B2, “3,3-difluoropiperidine carbamate heterocyclic compounds as NR2B NMDA receptor antagonists” (Rugen Holdings (Cayman) Limited, priority 2015, dated 2021)

Columns and labels:
[1] = molecular target: hERG channel (Homo sapiens (Human), UniProt Q12809); test: hERG channel inhibition, whole cell patch clamp; format: cell-based; conditions: 10 μM compound
Protocol: The assay was performed on hERG channel stably expressed in HEK293 cells. The cells were cultured at 37° C. in a humidified CO2 incubator in the growth medium consisting of DMEM, 10% fetal bovine serum and antibiotics. Prior to the assay, the cells were seeded onto a 12 mm PDL-coated glass coverslip and cultured in a 35 mm Petri dish. After 16 to 40 hr culture, the cover slip was transferred into the chamber of OctaFlow perfusion system (ALA Instrument) and under a constant flow of extracellular solution (140 mM NaCl, 4 mM KCl, 1 mM MgCl2, 2 mM CaCl2, 10 mM HEPES, 10 mM D-glucose, pH 7.35, osmolarity 290). Whole cell patch clamping was performed with a glass micropipette filled with intracellular solution (120 mM KCl, 1.75 mM MgCl2, 5.4 mM CaCl2, 10 mM HEPES, 10 mM EGTA, and 4 mM ATP-K2, PH 7.2, osmolarity 310). Giga-seal was maintained during the test. The voltage control and current measurement were carried out using Axon amplifier 700B, Digidata 1440A and CLAMPEX10 software (Molecular Devices). Whole-cell hERG currents were recorded following the Petroski protocol: the cell was held at −80 mV, and the voltage step jumped from −80 to 30 mV and stay for 2 sec with a 20 ms prepulse at −40 mV. After depolarization, the voltage was decreased to −40 mV and stay for 2 sec, and returned back to −80 mV. Test compound was applied by quartz capillary tubes tip (200 μm inner diameter), and the flow rate was controlled at 2-3 ml/min with OctaFlow perfusion system. Different concentrations of the compound were applied to the cells for 5 min and the hERG current was measured three times before, during and after compound treatment. The data were analyzed using Clampfit 10 software (Molecular Devices) to generate IC50 values.

[2] = molecular target: CYP2D6 (Homo sapiens (Human), UniProt P10635); test: CYP P450 enzyme inhibition in pooled human liver microsomes; format: in vitro ADME; conditions: 10 μM compound, pooled HLM
Protocol: Those CYP isoforms and their corresponding probe substrates are as follows: CYP1A2 (phenacetin, 30 μM), CYP2C9 (tolutamide, 100 μM), CYP2C19 (S-mephenytoin, 40 μM), CYP2D6 (dextromethorphan, 5 μM) and CYP3A4 (midazolam, 1 μM). All probe substrates were used at concentrations near or below their Kms. For experiment, a reaction mixture of test compound at 10 μM or in serial dilution, CYP probe substrate described above and 0.2 mg/mL pooled HLM in phosphate buffer, pH 7.4 in a final volume of 200 μL was pre-incubated at 37° C. for 10 minutes in triplicate. The reaction was initiated by addition of NADPH at final concentration of 1 mM. The reaction was terminated after 10 minutes (CYP1A2, CYP2D6 and CYP3A4) or 30 minutes (CYP2C9 and CYP2C19) by addition of 100 μL ice-cold acetonitrile with internal standard (IS). The samples were then centrifuged at 13,000 rpm and the supernatants were injected to LC-MS/MS (Agilent Technologies) to quantify the concentration of the specific metabolites of the probe substrates formed by individual CYP450 isoforms. The inhibition ratio is calculated as: (Mt−M0)/Mwater×100% in which Mt and M0 represent the concentrations of the specific probe substrate metabolite, which was formed by individual CYP450 isoform, at the beginning and end of the reaction in the presence of test compound; while Mwater represents the concentration of the specific metabolite at the end of the reaction in the absence of test compound. Test compound concentration-dependent response data experiments performed in triplicate.

[3] = system: rats; test: Electroconvulsive Threshold Test (ECT); format: in vivo
Protocol: (§1) Test compound E1-8.2 was administered as the free base.
Rats were administered ECS (rectangular current: 0.6 ms pulse width, 1.5 s duration, 200 Hz) via earclip electrodes connected to a constant current shock generator (Ugo Basile: type 7801). Test compounds were administered by oral gavage (p.o.) 1 hour before the test at a dose volume of 5 mL/kg.
Treatment groups of 20 rats were exposed to ECS as follows: The first animal was exposed to 30 mA of ECS. […] (increases of 5 mA) until the first tonic convulsion was observed. Once the first tonic convulsion was observed, the intensity of ECS was decreased by 2 mA for the next animal and then decreased or increased by 2 mA from animal to animal depending on whether the previous animal convulsed or not. If the first animal did convulse (tonic convulsions) within 5 seconds, animal no 2 is exposed to 25 mA, etc. . . . (decreases of 5 mA) until the absence of tonic convulsions was observed. At this point, the intensity of ECS was increased by 2 mA for the next animal and then decreased or increased by 2 mA from animal to animal depending on whether the previous animal convulsed or not. The minimum current intensity applied is 5 mA and the maximum 95 mA. The first 5 animals serve to approach threshold current and were not included in the analysis. The results are presented as the mean current intensity administered to the final 15 animals of a group. The test was performed blind. A positive percent change indicates an anticonvulsant effect. A negative percent change indicates a proconvulsant effect. The test substance was evaluated at 4 doses, typically using 0.5% dimethylsulfoxide, 4% hydroxypropyl-b-cyclodextrin water as a vehicle, and administered p.o. 60 minutes before ECS, and compared with a vehicle control group. Diazepam (16 mg/kg p.o.), administered under the same experimental conditions, was used as reference substance. The experiment included 6 groups. Data with the test substance was analyzed by comparing treated groups with vehicle control using one-way ANOVA followed by Dunnett's t tests.

[4] = system: rats; test: Pentylenetetrazole (PTZ) Seizure Test; format: in vivo; conditions: 10 mg/kg p.o. 30 min before PTZ 100 mg/kg s.c.
Protocol: Rats, placed in individual macrolon cages (25×19×13 cm), were injected with pentylenetetrazole (PTZ) (100 mg/kg s.c.). The occurrence and latency of clonic and tonic convulsions and death were noted over a 30 minute period. 15 rats were studied per group. The test was performed blind.
as §1
Compounds were evaluated typically using 0.5% dimethylsulfoxide, 4% hydroxypropyl-b-cyclodextrin water as a vehicle at 1 or more doses (e.g., 1, 3 and 10 mg/kg), administered p.o. 30 minutes before PTZ, and compared with a vehicle control group. Diazepam (16 mg/kg p.o.), administered 60 minutes before PTZ, was used as reference substance. The experiment was performed over 2 separate sub-experiments with N=7 to 8 animals per group and per sub-experiment. Quantitative data (latencies) with the test substance was analyzed by comparing treated groups with vehicle control using Kruskal-Wallis test followed by Mann-Whitney U test. Quantitative data with the reference substance was analyzed using Mann-Whitney U test. Quantal data (frequencies) was analyzed by comparing treated groups with vehicle control using Fisher's Exact Probability tests (*=p<0.05; **=p<0.01; ***=p<0.001).

[5] = system: mice; test: Forced Swim Test in mice; format: in vivo
Source text: (§2) The forced swim test (FST) also known at the behavioural despair test was used to evaluate antidepressant activity (Porsolt et al., 1977 Arch. Int. Pharmacodyn. 229: 327-336, Porsolt et al., 1977, Eur. J. Pharmacol. 47:379-391). Mice or rats that are forced to swim in a situation from which they cannot escape, rapidly become immobile. Drugs with antidepressant activity, such as imipramine, reduce the amount of time spent in the immobile state. Therefore, the amount of immobility time during a test conducted after drug administration represents a useful indicator of antidepressant activity (Lucki et al 2001 Psychopharmacology 155:315-322; Porsolt et al., 1977, Nature 266:730-732).
Mice were evaluated in a single swimming test session of 6 minutes. Mice were placed in a transparent plastic cylinder 24 cm high with a diameter of 13 cm containing 10 cm of water with ambient temperature control generally from 22±2° C. Mice were placed in the water for 6 minutes and the duration of immobility during the last 4 minutes was measured.
Animals were observed by a blinded observer. […] The amount of time each animal spent in the immobile state (and the latency to the first bout of immobility) was recorded and used for statistical analysis of compound effect. Group differences were evaluated by student's t-test (reference substance) or one-way ANOVA followed by post-hoc Dunnett's test (test substances). […]
Male mice (strain NLMN) weighing 25-35 g were used for testing. […] The mice were videotaped for 6 minutes, and the last 4 minutes of video were analyzed by a blinded observer off-line. […] The amount of time each animal spent in the immobile state was recorded and used for statistical analysis of compound effect. Group differences were evaluated by student's t-test or one-way ANOVA followed by post-hoc Dunnett's test.
Mice were individually placed in a cylinder (height=24 cm; diameter=13 cm) containing 10 cm water (22° C.) from which they cannot escape. The mice were placed in the water for 6 minutes and the duration of immobility during the last 4 minutes was measured. […]

[6] = system: rats; test: Forced Swim Test in rats; format: in vivo, Wistar rats
Source text: as §2
Male Wistar rats weighing 197-251 g were used for the rat test. Rats were evaluated according to a two-session procedure with a swimming session of 15 minutes on the first day of the experiment (Session 1) followed 24 hours later by a 5-minute swimming test (Session 2). […] Rats were placed in the water 24 h later for 5 minutes (Session 2) and the duration of immobility was measured.
Animals were observed by a blinded observer. […] The amount of time each animal spent in the immobile state (and the latency to the first bout of immobility) was recorded and used for statistical analysis of compound effect. […]

CYP2D6, sequence (P10635 whole entry): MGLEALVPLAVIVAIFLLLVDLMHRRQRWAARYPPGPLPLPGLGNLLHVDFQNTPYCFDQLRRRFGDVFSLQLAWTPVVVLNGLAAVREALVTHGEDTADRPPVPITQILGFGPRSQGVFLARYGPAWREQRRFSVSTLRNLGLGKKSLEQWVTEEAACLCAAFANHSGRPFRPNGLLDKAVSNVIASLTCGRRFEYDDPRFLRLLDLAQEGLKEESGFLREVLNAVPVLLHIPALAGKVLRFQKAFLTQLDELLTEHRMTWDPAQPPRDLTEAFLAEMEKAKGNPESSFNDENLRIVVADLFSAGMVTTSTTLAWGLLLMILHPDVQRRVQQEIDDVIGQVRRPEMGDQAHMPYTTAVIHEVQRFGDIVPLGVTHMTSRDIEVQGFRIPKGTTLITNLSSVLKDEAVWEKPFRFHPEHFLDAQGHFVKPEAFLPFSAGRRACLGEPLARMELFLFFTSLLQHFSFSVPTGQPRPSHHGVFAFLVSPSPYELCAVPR
hERG channel, sequence (Q12809 whole entry): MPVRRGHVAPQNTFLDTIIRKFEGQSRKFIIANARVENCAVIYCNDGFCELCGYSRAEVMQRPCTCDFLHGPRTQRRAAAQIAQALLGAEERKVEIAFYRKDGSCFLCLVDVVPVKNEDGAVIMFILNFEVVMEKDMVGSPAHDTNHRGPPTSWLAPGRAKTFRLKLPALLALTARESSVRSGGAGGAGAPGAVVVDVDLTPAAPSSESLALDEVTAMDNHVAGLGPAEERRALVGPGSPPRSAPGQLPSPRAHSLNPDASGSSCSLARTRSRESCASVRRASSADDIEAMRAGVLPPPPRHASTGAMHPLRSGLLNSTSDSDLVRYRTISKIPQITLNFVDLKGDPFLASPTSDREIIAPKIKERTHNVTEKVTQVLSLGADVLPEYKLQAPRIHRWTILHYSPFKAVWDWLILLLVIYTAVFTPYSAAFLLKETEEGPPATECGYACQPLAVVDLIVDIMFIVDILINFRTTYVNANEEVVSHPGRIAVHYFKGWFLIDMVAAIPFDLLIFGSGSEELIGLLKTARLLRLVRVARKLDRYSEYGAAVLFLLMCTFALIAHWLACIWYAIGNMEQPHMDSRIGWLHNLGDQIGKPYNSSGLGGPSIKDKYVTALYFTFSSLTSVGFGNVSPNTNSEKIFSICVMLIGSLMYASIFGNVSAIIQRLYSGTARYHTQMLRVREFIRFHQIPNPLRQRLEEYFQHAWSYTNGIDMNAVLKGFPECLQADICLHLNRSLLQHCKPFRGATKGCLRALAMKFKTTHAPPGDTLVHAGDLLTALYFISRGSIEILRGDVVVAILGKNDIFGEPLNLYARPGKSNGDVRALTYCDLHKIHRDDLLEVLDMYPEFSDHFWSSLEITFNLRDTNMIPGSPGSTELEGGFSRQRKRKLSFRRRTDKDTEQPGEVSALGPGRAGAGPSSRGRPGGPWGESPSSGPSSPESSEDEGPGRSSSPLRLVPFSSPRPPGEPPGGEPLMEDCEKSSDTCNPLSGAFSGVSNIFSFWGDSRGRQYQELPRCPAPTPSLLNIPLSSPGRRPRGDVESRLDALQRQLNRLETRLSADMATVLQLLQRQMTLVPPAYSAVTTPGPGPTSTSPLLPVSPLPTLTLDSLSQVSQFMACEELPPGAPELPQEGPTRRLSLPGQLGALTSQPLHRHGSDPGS

Compound	hERG @ 10 μM (%) [1] [%]	CYP2D6 @ 10 μM (%) [2] [%]	further results
O=C(OCc1ccc(Cl)cc1)N1CC[C@H](CNc2nccn3cnnc23)C(F)(F)C1 [Compound E1-1.3, R-4-chlorobenzyl 4-(([1,2,4]triazolo[4,3-a]pyrazin-8-ylamino)methyl)-3,3-difluoropiperidine-1-carboxylate]	19	37	–
O=C(OCc1ccc(F)cc1)N1CC[C@H](CNc2nccn3cnnc23)C(F)(F)C1 [Compound E1-1.4, R-4-fluorobenzyl 4-(([1,2,4]triazolo[4,3-a]pyrazin-8-ylamino)methyl)-3,3-difluoropiperidine-1-carboxylate]	11	19	–
Cc1ccc(COC(=O)N2CC[C@H](CNc3cncc4nncn34)C(F)(F)C2)cc1 [Compound E1-2.2, R-4-methylbenzyl 4-(([1,2,4]triazolo[4,3-a]pyrazin-5-ylamino)methyl)-3,3-difluoropiperidine-1-carboxylate]	32	18	–
Cc1ccc(COC(=O)N2CC[C@H](CNc3ncc4cn[nH]c4n3)C(F)(F)C2)cc1 [Compound E1-8.2, (+)-R-4-methylbenzyl-4-((1H-pyrazolo[3,4-d]pyrimidin-6-ylamino)methyl)-3,3-difluoropiperidine-1-carboxylate]	57	83	activity on electroconvulsive threshold ([3]; 0.5 and 2 mpk p.o., free base): modest proconvulsant activity; activity on electroconvulsive threshold ([3]; 10 and 20 mpk p.o., free base): anticonvulsant activity
Cc1ccc(COC(=O)N2CC[C@H](CNc3nc4ccccn4n3)C(F)(F)C2)cc1 [Compound E1-9.2, (+)-R-4-methylbenzyl 4-(([1,2,4]triazolo[1,5-a]pyridin-2-ylamino)methyl)-3,3-difluoropiperidine-1-carboxylate]	38	14	–
Cc1ccc(COC(=O)N2CC[C@H](CNc3cnccn3)C(F)(F)C2)cc1 [Compound E1-21.2, R-4-methylbenzyl 3,3-difluoro-4-((pyrazin-2-ylamino)methyl)piperidine-1-carboxylate]	27	97	–
Cc1ccc(COC(=O)N2CC[C@H](CNc3cnc(C)cn3)C(F)(F)C2)cc1 [Compound E1-21.26, R-4-methylbenzyl 3,3-difluoro-4-((5-methylpyrazin-2-ylamino)-methyl)piperidine-1-carboxylate]	39	32	activity on electroconvulsive threshold ([3]; 3 and 10 mpk p.o., mesylate salt): anticonvulsant activity; change in latency to death [4]: +31%; change in number of deaths vs vehicle controls [4]: −82%
Cc1ccc(COC(=O)N2CC[C@@H](CNc3nccn4cnnc34)C(F)(F)C2)cc1 [Compound E2-1.2, (−)-S-4-methylbenzyl 4-(([1,2,4]triazolo[4,3-a]pyrazin-8-ylamino)methyl)-3,3-difluoropiperidine-1-carboxylate]	22	–	–
FC(F)(F)c1ccc(C(F)(F)CN2CCC(Nc3ncnc4[nH]ncc34)CC2)cc1 [LX-1, reference compound]	–	93	–
CN1C(=O)CN=C(c2ccccc2)c2cc(Cl)ccc21 [diazepam, reference compound]	–	–	activity on electroconvulsive threshold ([3]; 16 mpk p.o.): showed the expected anticonvulsant activity
CN(C)CCCN1c2ccccc2CCc2ccccc21 [imipramine]	–	–	antidepressant activity (immobility time) ([5]; 32 mpk i.p. once 30 min before the test): showed the expected antidepressant activity; antidepressant activity (immobility time) ([5]; 64 mpk p.o. once 60 min before the test): showed the expected antidepressant activity; antidepressant activity (immobility time) ([5]; 128 mpk p.o. once 60 minutes before the test on Day 7): showed the expected antidepressant activity; antidepressant activity (immobility time) ([6]; 32 mpk i.p. 3 times: 24 h, 4 h and 30 min before Session 2): showed the expected antidepressant activity; antidepressant activity (immobility time) ([6]; 64 mpk p.o. 3 times: 24 h, 4 h and 60 min before Session 2): showed the expected antidepressant activity
Cn1c(=O)c2[nH]cnc2n(C)c1=O [theophylline, reference compound]	–	–	activity on electroconvulsive threshold ([3]; 128 mpk p.o.): showed the expected proconvulsant activity
